Measured values: US12545669B2, “Cycloalkyl and heterocycloalkyl benzisoxazole sulfonamide derivatives” (Pfizer Inc., priority 2019, dated 2026)
Values joined by “and” are separate entries in the source; they are usually repeats but may differ in a detail not shown here. Identical values can stand only once. Like-named read-outs stand apart in the source and are kept apart here.

Biological target: KAT6A (Homo sapiens (Human), UniProt Q92794)
Assay: KAT assay protocol (SAMDI mass spectrometry), KAT6A
Format: biochemical
Conditions: for inhibition at 1 µM: 1 μM compound; for Ki: 10 μM AcCoA, Morrison equation; for IC50: KAT6A IC50 at 1 μM AcCoA, 1 μM AcCoA
Method: Biological Assay Section 1 KAT Assay Protocol:
A. Compound Preparation • 1. Prepare 10 mM stock solutions in 100% DMSO from solid material • 2. Serial dilute 10 mM, 1 mM or 0.1 mM compound stocks 3-fold in 100% DMSO for 11-point dose response
B. Reagent Preparation • 1. Prepare 1× assay buffer containing 10 mM Tris HCL pH 8.0, 2.5 mM NaCl, 0.5 mM EDTA, 0.005% BSG and 0.02% Tween-20 • 2. Dilute Histone peptide (CPC Scientific) and AcCoA (Sigma) together in assay buffer to 2×. • 3. Dilute KAT enzyme in assay buffer to 2×.
C. Enzyme Reaction • 1. Final reaction conditions for each KAT assay in a 20 ul assay reaction volume: • i. […] Add 0.5 ul of diluted compound to the assay plate (384-well V-bottom polypropylene plates) or 0.5 ul of DMSO for control wells. • 3. Add 10 ul of 2× Histone peptide/2× AcCoA mix to the assay plate. • 4. Add 10 ul of 2× enzyme to the assay plate. • 5. Stop the reaction after the indicated time with the addition of 2 ul of 5% formic acid • 6. Each reaction was analyzed using self-assembled monolayer desorption/ionization time-of-flight mass spectrometry (Mrksich, Milan (2008) Mass Spectrometry of Self-Assembled Monolayers: A New Tool for Molecular Surface Science ACS Nano 2008 2 (1), 7-18; SAMDI Tech, Inc. (Chicago, IL)). • 7. Area under the curve (AUC) for both substrate and product peaks was determined for KAT6A at M.W. 2723 [Substrate+H]^+ and 2765 [Product+H]^+ with a +/−1 Da tolerance, respectively. • 8. Percent conversion to product was calculated by: AUCProduct/(AUCSubstrate+AUCProduct).
D. Data Analysis • 1. IC50 values were determined by fitting the % conversion at each inhibitor concentration to the 4-parameter IC50 equation using Pfizer proprietary curve fitting software. • 2. Ki values were determined by fitting the % conversion at each inhibitor concentration to the Morrison equation for tightbinding competitive inhibitors using Pfizer proprietary curve fitting software. Materials
KAT enzymes were expressed using a baculovirus expression system and purified at Pfizer, La Jolla. Histone H3 (1-21) peptide ([…], SEQ ID NO:3) was purchased from CPC Scientific (Sunnyvale, CA). Acetyl coenzyme A was purchased from Sigma-Aldrich (St. Louis, MO). All other biochemical reagents were purchased from Sigma-Aldrich or ThermoFisher Scientific (Waltham, MA).
[…] 10 ul of 2× Histone peptide/AcCoA mix was added to a 384-well V-bottom polypropylene assay plate containing 0.5 ul of serially diluted test compound in 100% dimethyl sulfoxide (DMSO). To start the reaction, 10 ul of 2× enzyme solution was added to the assay plate. KAT assays were terminated after 30-60 minutes with the addition of 2 ul of 5% formic acid. KAT6A used histone H3 (1-21) peptide. The final enzyme concentration for KAT6A was 15 nM. Each reaction was analyzed using self-assembled monolayer desorption/ionization time-of-flight mass spectrometry (Mrksich, Milan (2008) Mass Spectrometry of Self-Assembled Monolayers: A New Tool for Molecular Surface Science ACS Nano 2008 2 (1), 7-18; SAMDI Tech, Inc. (Chicago, IL)).
Area under the curve (AUC) for both substrate and product peaks was determined for KAT6A at M.W. 2723 [Substrate+H]^+ and 2765 [Product+H]^+ with a +/−1 Da tolerance, respectively. Percent conversion to product was calculated by: AUCProduct/(AUCSubstrate+AUCProduct). IC50 values were determined by fitting the % conversion at each inhibitor concentration to the 4-parameter IC50 equation using Pfizer proprietary curve fitting software. Ki values were determined by fitting the % conversion at each inhibitor concentration to the Morrison equation for tightbinding competitive inhibitors using Pfizer proprietary curve fitting software.

Chain of KAT6A (Q92794 whole entry): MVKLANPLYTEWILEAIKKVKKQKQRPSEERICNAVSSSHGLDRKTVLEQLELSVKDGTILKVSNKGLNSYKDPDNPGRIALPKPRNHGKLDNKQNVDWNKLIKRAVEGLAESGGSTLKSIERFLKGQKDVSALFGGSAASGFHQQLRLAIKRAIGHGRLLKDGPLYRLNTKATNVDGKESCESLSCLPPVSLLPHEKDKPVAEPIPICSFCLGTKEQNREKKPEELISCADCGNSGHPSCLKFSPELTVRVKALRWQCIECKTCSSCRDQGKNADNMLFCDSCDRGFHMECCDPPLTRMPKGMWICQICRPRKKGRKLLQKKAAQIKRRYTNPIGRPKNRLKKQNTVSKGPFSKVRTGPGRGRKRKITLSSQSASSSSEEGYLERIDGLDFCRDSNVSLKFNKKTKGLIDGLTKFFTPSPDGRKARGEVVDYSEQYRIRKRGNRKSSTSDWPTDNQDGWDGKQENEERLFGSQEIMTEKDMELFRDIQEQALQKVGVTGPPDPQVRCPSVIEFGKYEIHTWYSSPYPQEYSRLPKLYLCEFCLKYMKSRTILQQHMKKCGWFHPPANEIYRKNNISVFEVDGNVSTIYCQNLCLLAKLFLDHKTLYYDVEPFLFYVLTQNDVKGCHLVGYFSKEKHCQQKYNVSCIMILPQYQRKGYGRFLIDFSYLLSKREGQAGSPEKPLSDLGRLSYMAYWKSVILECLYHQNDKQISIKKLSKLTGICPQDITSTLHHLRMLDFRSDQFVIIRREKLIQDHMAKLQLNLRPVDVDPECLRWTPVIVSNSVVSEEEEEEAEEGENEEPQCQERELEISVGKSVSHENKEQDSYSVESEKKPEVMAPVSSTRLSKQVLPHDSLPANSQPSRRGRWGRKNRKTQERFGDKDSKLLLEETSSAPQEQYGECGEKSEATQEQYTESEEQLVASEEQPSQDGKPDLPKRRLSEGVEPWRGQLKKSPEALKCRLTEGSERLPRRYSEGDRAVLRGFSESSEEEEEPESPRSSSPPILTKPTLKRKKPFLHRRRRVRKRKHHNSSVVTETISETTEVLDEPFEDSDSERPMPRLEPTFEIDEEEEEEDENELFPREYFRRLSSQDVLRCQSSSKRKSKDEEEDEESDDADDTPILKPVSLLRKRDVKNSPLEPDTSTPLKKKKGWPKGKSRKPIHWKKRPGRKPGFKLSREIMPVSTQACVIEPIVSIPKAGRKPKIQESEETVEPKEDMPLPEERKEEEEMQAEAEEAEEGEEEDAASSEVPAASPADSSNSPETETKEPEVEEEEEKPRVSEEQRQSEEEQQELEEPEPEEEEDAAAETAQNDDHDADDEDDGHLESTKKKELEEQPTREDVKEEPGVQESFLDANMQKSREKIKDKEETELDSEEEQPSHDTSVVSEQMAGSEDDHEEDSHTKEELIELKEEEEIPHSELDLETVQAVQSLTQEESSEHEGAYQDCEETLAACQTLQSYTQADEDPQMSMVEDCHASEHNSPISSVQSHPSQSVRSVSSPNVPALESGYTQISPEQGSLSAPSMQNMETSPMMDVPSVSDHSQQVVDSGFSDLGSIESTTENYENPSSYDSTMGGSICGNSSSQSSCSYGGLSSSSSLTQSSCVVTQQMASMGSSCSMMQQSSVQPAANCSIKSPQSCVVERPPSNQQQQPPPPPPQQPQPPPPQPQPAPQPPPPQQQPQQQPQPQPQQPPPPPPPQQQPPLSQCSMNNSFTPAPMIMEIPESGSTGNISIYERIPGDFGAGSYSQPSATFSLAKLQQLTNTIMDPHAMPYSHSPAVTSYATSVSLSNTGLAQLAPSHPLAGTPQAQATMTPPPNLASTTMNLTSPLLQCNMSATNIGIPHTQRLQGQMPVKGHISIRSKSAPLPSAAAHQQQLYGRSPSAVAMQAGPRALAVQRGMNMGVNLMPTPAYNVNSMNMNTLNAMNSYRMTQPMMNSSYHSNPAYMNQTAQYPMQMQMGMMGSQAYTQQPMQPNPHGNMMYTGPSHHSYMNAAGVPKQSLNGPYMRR

Row | SMILES | inhibition at 1 µM | Ki (KAT6A Ki at 10 μM AcCoA) | also measured
1 | COc1cc(Cn2cccn2)cc2onc(NS(=O)(=O)CC3CCC3)c12 [Example 17] | 83% | 82.4 nM | –
2 | COc1cc(Cn2cccn2)cc2onc(NS(=O)(=O)CC3CC4(CCC4)C3)c12 [Example 38] | 92% | – | –
3 | COc1cc(Cn2cccn2)cc2onc(NS(=O)(=O)C3(C)CCC3)c12 [Example 81] | 41% | – | –
4 | COc1cc(Cn2cccn2)cc2onc(NS(=O)(=O)C3COC(C)(C)C3)c12 (centres unmarked) [Example 90] | 83% | 66.2 nM and 58.1 nM | –
5 | COc1cc(Cn2cccn2)cc2onc(NS(=O)(=O)CCCC3CC3)c12 [Example 58] | 87% | – | –
6 | COc1cc(Cn2cccn2)cc2onc(NS(=O)(=O)CC3CCCC3)c12 [Example 9] | 91% | 60.1 nM | –
7 | COc1cc(Cn2cccn2)cc2onc(NS(=O)(=O)CC3CC(C)(C)OC3(C)C)c12 (centres unmarked) [Example 86] | 77% | 107 nM | –
8 | COc1cc(Cn2cccn2)cc2onc(NS(=O)(=O)CC3CCCCO3)c12 (single isomer, unassigned; (-)) [Example 2, (−)-N-{4-methoxy-6-[(1H-pyrazol-1-yl)methyl]-1,2-benzoxazol-3-yl}-1-(oxan-2-yl)methanesulfonamide] | – | – | IC50: 270 nM
9 | COc1cc(Cn2cccn2)cc2onc(NS(=O)(=O)CC3CC34CC4)c12 (centres unmarked) [Example 57] | 104% | 13.9 nM | –
10 | COc1cc(Cn2cccn2)cc2onc(NS(=O)(=O)CCC3CCCCC3)c12 [Example 31] | 93% | 4.94 nM | –
11 | COc1cc(Cn2cccn2)cc2onc(NS(=O)(=O)CC3CCCOC3)c12 (centres unmarked) [Example 3] | – | – | IC50: 301 nM
12 | COc1cc(Cn2cccn2)cc2onc(NS(=O)(=O)CC3CCCOC3)c12 (centres unmarked) [Example 98] | 41% | – | –
13 | COc1cc(Cn2cccn2)cc2onc(NS(=O)(=O)CC3CCOCC3)c12 [Example 7, N-{4-methoxy-6-[(1H-pyrazol-1-yl)methyl]-1,2-benzoxazol-3-yl}-1-(oxan-4-yl)methanesulfonamide] | 51% | 177 nM | –
14 | COc1cc(Cn2cccn2)cc2onc(NS(=O)(=O)C[C@H]3C[C@H](C)C3)c12 [Example 134] | – | – | IC50: 40 nM
15 | COc1cc(Cn2cccn2)cc2onc(NS(=O)(=O)CC3(OC)CCCCC3)c12 [Example 52] | 66% | 127 nM | –
16 | COc1cc(Cn2cccn2)cc2onc(NS(=O)(=O)CCOCC3CCC3)c12 [Example 126] | – | – | IC50: 133 nM

Row | SMILES | inhibition at 1 µM | Ki (KAT6A Ki at 10 μM AcCoA) | also measured
17 | COc1cc(Cn2cccn2)cc2onc(NS(=O)(=O)CC3CCC(F)(F)CC3)c12 [Example 10] | 48% | 89.4 nM | –
18 | COc1cc(Cn2cccn2)cc2onc(NS(=O)(=O)CCN3CCOCC3)c12 [Example 130] | – | – | IC50: 187 nM
19 | COc1cc(Cn2cccn2)cc2onc(NS(=O)(=O)CC34CCC(CC3)CC4)c12 [Example 24] | 93% | 19.5 nM | –
20 | COc1cc(Cn2cccn2)cc2onc(NS(=O)(=O)CC3(OC)CCC3)c12 [Example 56] | 71% | – | –
21 | COc1cc(Cn2cccn2)cc2onc(NS(=O)(=O)CC3CCCO3)c12 (centres unmarked) [Example 6] | – | – | IC50: 371 nM
22 | COc1cc(Cn2cccn2)cc2onc(NS(=O)(=O)C3CC4(CCC4)C3)c12 [Example 33] | 65% | – | –
23 | COc1cc(Cn2cccn2)cc2onc(NS(=O)(=O)CCC3CC3)c12 [Example 23] | 92% | 31.6 nM | –
24 | COc1cc(Cn2cccn2)cc2onc(NS(=O)(=O)CC3C[C@@H]4[C@H](C3)C4(F)F)c12 (some centres unmarked) [Example 64] | 92% | 28 nM | –
25 | COc1cc(Cn2cccn2)cc2onc(NS(=O)(=O)CC3(C)CCCCC3)c12 [Example 22] | 60% | 33.2 nM | –
26 | COc1cc(Cn2cccn2)cc2onc(NS(=O)(=O)CC(OC)C3CCCCC3)c12 (centres unmarked) [Example 46] | 103% | – | –
27 | COc1cc(Cn2cccn2)cc2onc(NS(=O)(=O)CC3CC4CCC3C4)c12 (centres unmarked) [Example 30] | 98% | 7.32 nM | –
28 | COc1cc(Cn2cccn2)cc2onc(NS(=O)(=O)CCC3CCCO3)c12 (centres unmarked) [Example 102] | 70% | 116 nM | –
29 | COc1cc(Cn2cccn2)cc2onc(NS(=O)(=O)C3CC(C)(C)C3)c12 [Example 84] | 62% | – | –
30 | COc1cc(Cn2cccn2)cc2onc(NS(=O)(=O)C3CC(CC#N)C3)c12 (centres unmarked) [Example 14] | – | 160 nM | –
31 | COc1cc(Cn2cccn2)cc2onc(NS(=O)(=O)C3CCC(C)C3)c12 (centres unmarked) [Example 21] | 84% | 34.5 nM | –
32 | COc1cc(Cn2cccn2)cc2onc(NS(=O)(=O)CCC3(C)CC3)c12 [Example 53] | 97% | – | –

Second part, led by results:

Row | inhibition at 1 µM | SMILES | Ki (KAT6A Ki at 10 μM AcCoA) | also measured
33 | 85% | COc1cc(Cn2cccn2)cc2onc(NS(=O)(=O)[C@H]3CCCC[C@H]3OC)c12 [Example 83] | – | –
34 | 58% | COc1cc(Cn2cccn2)cc2onc(NS(=O)(=O)C3CCOCC3C)c12 (centres unmarked) [Example 96] | – | –
35 | 48% | COc1cc(Cn2cccn2)cc2onc(NS(=O)(=O)C3CCCCCC3)c12 [Example 59] | – | –
36 | 75% | COc1cc(Cn2cccn2)cc2onc(NS(=O)(=O)CC3CCOC(C)C3)c12 (centres unmarked) [Example 103] | – | –
37 | 83% | COc1cc(Cn2cccn2)cc2onc(NS(=O)(=O)C3CCOC3=O)c12 (centres unmarked) [Example 99] | – | –
38 | 108% | COc1cc(Cn2cccn2)cc2onc(NS(=O)(=O)CCC3CC4CCC3C4)c12 (centres unmarked) [Example 45] | – | –
39 | 106% | COc1cc(Cn2cccn2)cc2onc(NS(=O)(=O)CC3CCC3(F)F)c12 (centres unmarked) [Example 79] | – | –
40 | 53% | COc1cc(Cn2cccn2)cc2onc(NS(=O)(=O)[C@@H]3CCCN(C(=O)OCc4ccccc4)C3)c12 [Example 91] | – | –
41 | 70% | COc1cc(Cn2cccn2)cc2onc(NS(=O)(=O)C3CCCC3C)c12 (centres unmarked) [Example 72] | – | –
42 | 77% | COc1cc(Cn2cccn2)cc2onc(NS(=O)(=O)CC3CCC(F)CC3)c12 (centres unmarked) [Example 8] | – | –
43 | 90% | COc1cc(Cn2cccn2)cc2onc(NS(=O)(=O)CC3(C(F)F)CCC3)c12 [Example 76] | – | –
44 | 78% | COc1cc(Cn2cccn2)cc2onc(NS(=O)(=O)CC3CC(OC)C3)c12 (centres unmarked) [Example 69] | – | –
45 | 69% | COc1cc(Cn2cccn2)cc2onc(NS(=O)(=O)CC3CCC(C)O3)c12 (centres unmarked) [Example 100] | – | –
46 | 96% | COc1cc(Cn2cccn2)cc2onc(NS(=O)(=O)C3CC(C)C3)c12 (centres unmarked) [Example 73] | – | –
47 | 76% | COc1cc(Cn2cccn2)cc2onc(NS(=O)(=O)C3CCN(C(C)=O)CC3)c12 [Example 94] | – | –
48 | 91% | COc1cc(Cn2cccn2)cc2onc(NS(=O)(=O)CC3C(C)(C)C3(F)F)c12 (centres unmarked) [Example 75] | – | –
49 | 46% | COc1cc(Cn2cccn2)cc2onc(NS(=O)(=O)CC3(C(F)(F)F)CC3)c12 [Example 34] | – | –
50 | 51% | COc1cc(Cn2cccn2)cc2onc(NS(=O)(=O)CC3CC(F)(F)C3)c12 [Example 36] | – | –
51 | 67% | COc1cc(Cn2cccn2)cc2onc(NS(=O)(=O)CCC3CCCCO3)c12 (centres unmarked) [Example 108] | – | –
52 | 89% | COc1cc(Cn2cccn2)cc2onc(NS(=O)(=O)C3CCC(OC)CC3)c12 (centres unmarked) [Example 44] | – | –
53 | 101% | COc1cc(Cn2cccn2)cc2onc(NS(=O)(=O)CC34CCCN(CC3)C4)c12 (centres unmarked) [Example 105] | – | –
54 | 59% | COc1cc(Cn2cccn2)cc2onc(NS(=O)(=O)C3CCC3)c12 [Example 12] | – | Ki (read-out: KAT6A Ki at 10 μM AcCoA): 199 nM
